Experimental data as given in patent US10294202B2, “Pyrrolidinones as herbicides” (FMC Corporation, priority 2013, dated 2019).

How the values were obtained:
wheat = test: Test A pre-/postemergence herbicide test; format: in vivo, Triticum aestivum
Summary of the method: (§1)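 Formulated compound (non-phytotoxic solvent, surfactant) sprayed pre- onto soil of seeded loam/sand pots or post- onto seedlings at 1–2 leaves; ~10 d greenhouse; 0–100 visual control rating versus untreated.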

pigweed = test: Test A pre-/postemergence herbicide test; format: in vivo, Amaranthus retroflexus
Summary of the method: as §1

foxtail, giant = test: Test C pre-/postemergence herbicide test; format: in vivo, Setaria faberii; conditions: for Foxtail, Giant plant response rating: scale 0 to 100, 0 is no effect and 100 is complete control
Summary of the method: (§2)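 Compound solutions contained surfactant in a non-phytotoxic solvent. These were sprayed onto pots of loam/sand sown with seeds, and onto young plants (2 to 18 cm, 1- to 4-leaf) in sphagnum peat–vermiculite mix. Visual injury scores (0 none, 100 complete control) were recorded after 13 to 15 days.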

johnsongrass = test: Test C pre-/postemergence herbicide test; format: in vivo, Sorghum halepense; conditions: for Johnsongrass plant response rating: scale 0 to 100, 0 is no effect and 100 is complete control
Summary of the method: as §2

sedge, umbrella = test: Test B flooded paddy test; format: in vivo, Cyperus difformis; conditions: Flood, scale of 0 to 100 where 0 is no effect and 100 is complete control
Summary of the method: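 Paddy-water application at a 3 cm flood, young plants having two leaves. Water level maintained; greenhouse, 13–15 days; visual 0–100 control rating.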

giant foxtail = test: Test A pre-/postemergence herbicide test; format: in vivo, Setaria faberii
Summary of the method: as §1

ragweed = test: Test C pre-/postemergence herbicide test; format: in vivo, Ambrosia elatior
Summary of the method: as §2

ryegrass, Italian = test: Test C pre-/postemergence herbicide test; format: in vivo, Lolium multiflorum; conditions: for Ryegrass, Italian plant response rating: scale 0 to 100, 0 is no effect and 100 is complete control
Summary of the method: as §2

nutsedge, yellow = test: Test C pre-/postemergence herbicide test; format: in vivo, Cyperus esculentus; conditions: for Nutsedge, Yellow plant response rating: scale 0 to 100, 0 is no effect and 100 is complete control
Summary of the method: as §2

blackgrass = test: Test C pre-/postemergence herbicide test; format: in vivo, Alopecurus myosuroides; conditions: for Blackgrass plant response rating: scale 0 to 100, 0 is no effect and 100 is complete control
Summary of the method: as §2

crabgrass, large = test: Test C pre-/postemergence herbicide test; format: in vivo, Digitaria sanguinalis; conditions: for Crabgrass, Large plant response rating: scale 0 to 100, 0 is no effect and 100 is complete control
Summary of the method: as §2

[1] = Postemergence, 125 g ai/ha, 0 to 100 scale, 0 no effect, 100 complete control
[2] = 125 g ai/ha, visual rating, 0 to 100 scale, 0 no effect, 100 complete control, approximately 10 days, preemergence
[3] = preemergence, 500 g ai/ha, 0 to 100 scale
[4] = Postemergence, 31 g ai/ha, scale 0 to 100 (0 no effect, 100 complete control)
[5] = Postemergence, 62 g ai/ha, scale 0 (no effect) to 100 (complete control)
[6] = Postemergence, 125 g ai/ha, scale 0 to 100 (0 no effect, 100 complete control)
[7] = Postemergence, 250 g ai/ha, scale 0 to 100 (0 no effect, 100 complete control)
[8] = Preemergence, 62 g ai/ha, scale 0 to 100
[9] = Preemergence, 125 g ai/ha, scale 0 to 100 (0 no effect, 100 complete control)
[10] = Postemergence, 500 g ai/ha, 0 to 100 scale (0 no effect, 100 complete control)
[11] = Preemergence, 125 g ai/ha, visual rating on 0 to 100 scale (0 no effect, 100 complete control)

For `O=C1NCC(c2ccc(F)cc2)C1C(=O)Nc1ccc(F)c(F)c1F` (racemic) [Compound 120], the “Plant response rating, Wheat” value (wheat; [1]) was 20, the “Wheat plant response rating (0 to 100 scale, 0 is no effect, 100 is complete control)” value (wheat; Postemergence, 500 g ai/ha) was 60 and the “Plant response rating, Pigweed” value (pigweed; [2]) was 30. The “Plant response rating, Pigweed” value (pigweed; [1]) was 20, the “Pigweed plant response rating (0 to 100 scale, 0 is no effect, 100 is complete control)” value (pigweed; Postemergence, 500 g ai/ha) was 50 and the “Plant response rating, Pigweed” value (pigweed; [3]) was 40. For the same molecule, the “Plant response rating, Foxtail, Giant” value (foxtail, giant; [4]) was 25, the “Plant response rating, Foxtail, Giant” value (foxtail, giant; [5]) was 65 and the “Plant response rating, Foxtail, Giant” value (foxtail, giant; [6]) was 75. The “Plant response rating, Foxtail, Giant” value (foxtail, giant; [7]) was 85, the “Foxtail, Giant plant response rating” value (foxtail, giant; Preemergence, 31 g ai/ha) was 90 and the “Plant response rating, Foxtail, Giant” value (foxtail, giant; [8]) was 95. For the same molecule, the “Plant response rating, Foxtail, Giant” value (foxtail, giant; [9]) was 98, the “Plant response rating (scale of 0 to 100), Foxtail, Giant” value (foxtail, giant; Preemergence, 250 g ai/ha) was 98 and the “Plant response rating, Johnsongrass” value (johnsongrass; [4]) was 0. For the same molecule, the “Plant response rating, Johnsongrass” value (johnsongrass; [5]) was 0, the “Plant response rating, Johnsongrass” value (johnsongrass; [6]) was 0 and the “Plant response rating, Johnsongrass” value (johnsongrass; [7]) was 0. For the same molecule, the “Johnsongrass plant response rating” value (johnsongrass; Preemergence, 31 g ai/ha) was 0, the “Plant response rating, Johnsongrass” value (johnsongrass; [8]) was 0 and the “Plant response rating, Johnsongrass” value (johnsongrass; [9]) was 25. For the same molecule, the “Plant response rating (scale of 0 to 100), Johnsongrass” value (johnsongrass; Preemergence, 250 g ai/ha) was 65, the “Plant response rating, Sedge, Umbrella” value (sedge, umbrella; 500 g ai/ha) was 0 and the “Plant response rating, Foxtail, Giant” value (giant foxtail; [2]) was 90. For the same molecule, the “Plant response rating, Foxtail, Giant” value (giant foxtail; [1]) was 80, the “Foxtail, Giant plant response rating (0 to 100 scale, 0 is no effect, 100 is complete control)” value (giant foxtail; Postemergence, 500 g ai/ha) was 90 and the “Plant response rating, Foxtail, Giant” value (giant foxtail; [3]) was 90. The “Plant response rating, Ragweed” value (ragweed; [4]) was 20, the “Plant response rating, Ragweed” value (ragweed; [5]) was 45 and the “Plant response rating, Ragweed” value (ragweed; [6]) was 40. For the same molecule, the “Plant response rating, Ragweed” value (ragweed; [7]) was 45, the “Ragweed plant response rating” value (ragweed; Preemergence, 31 g ai/ha, scale 0 to 100, 0 is no effect and 100 is complete control) was 0 and the “Plant response rating, Ragweed” value (ragweed; [8]) was 20. The “Plant response rating, Ragweed” value (ragweed; [9]) was 55, the “Plant response rating (scale of 0 to 100), Ragweed” value (ragweed; Preemergence, 250 g ai/ha) was 80 and the “Plant response rating, Ryegrass, Italian” value (ryegrass, Italian; [4]) was 0. For the same molecule, the “Plant response rating, Ryegrass, Italian” value (ryegrass, Italian; [5]) was 0, the “Plant response rating, Ryegrass, Italian” value (ryegrass, Italian; [6]) was 0 and the “Plant response rating, Ryegrass, Italian” value (ryegrass, Italian; [7]) was 10. For the same molecule, the “Ryegrass, Italian plant response rating” value (ryegrass, Italian; Preemergence, 31 g ai/ha) was 10, the “Plant response rating, Ryegrass, Italian” value (ryegrass, Italian; [8]) was 5 and the “Plant response rating, Ryegrass, Italian” value (ryegrass, Italian; [9]) was 10. The “Plant response rating (scale of 0 to 100), Ryegrass, Italian” value (ryegrass, Italian; Preemergence, 250 g ai/ha) was 30, the “Plant response rating, Nutsedge, Yellow” value (nutsedge, yellow; [4]) was 0 and the “Plant response rating, Nutsedge, Yellow” value (nutsedge, yellow; [5]) was 0. For the same molecule, the “Plant response rating, Nutsedge, Yellow” value (nutsedge, yellow; [6]) was 0, the “Plant response rating, Nutsedge, Yellow” value (nutsedge, yellow; [7]) was 0 and the “Nutsedge, Yellow plant response rating” value (nutsedge, yellow; Preemergence, 31 g ai/ha) was 0. For the same molecule, the “Plant response rating, Nutsedge, Yellow” value (nutsedge, yellow; [8]) was 0, the “Plant response rating, Nutsedge, Yellow” value (nutsedge, yellow; [9]) was 0 and the “Plant response rating (scale of 0 to 100), Nutsedge, Yellow” value (nutsedge, yellow; Preemergence, 250 g ai/ha) was 0. For the same molecule, the “Plant response rating, Blackgrass” value (blackgrass; [4]) was 0, the “Plant response rating, Blackgrass” value (blackgrass; [5]) was 0 and the “Plant response rating, Blackgrass” value (blackgrass; [6]) was 0. For the same molecule, the “Plant response rating, Blackgrass” value (blackgrass; [7]) was 0, the “Blackgrass plant response rating” value (blackgrass; Preemergence, 31 g ai/ha) was 35 and the “Plant response rating, Blackgrass” value (blackgrass; [8]) was 50. For the same molecule, the “Plant response rating, Blackgrass” value (blackgrass; [9]) was 50, the “Plant response rating (scale of 0 to 100), Blackgrass” value (blackgrass; Preemergence, 250 g ai/ha) was 70 and the “Plant response rating, Crabgrass, Large” value (crabgrass, large; [4]) was 55. The “Plant response rating, Crabgrass, Large” value (crabgrass, large; [5]) was 70, the “Plant response rating, Crabgrass, Large” value (crabgrass, large; [6]) was 70 and the “Plant response rating, Crabgrass, Large” value (crabgrass, large; [7]) was 75. For the same molecule, the “Crabgrass, Large plant response rating” value (crabgrass, large; Preemergence, 31 g ai/ha) was 98, the “Plant response rating, Crabgrass, Large” value (crabgrass, large; [8]) was 100 and the “Plant response rating, Crabgrass, Large” value (crabgrass, large; [9]) was 100. The “Plant response rating (scale of 0 to 100), Crabgrass, Large” value (crabgrass, large; Preemergence, 250 g ai/ha) was 100.

In the case of `O=C1NCC(c2ccc(F)c(C(F)(F)F)c2)C1C(=O)Nc1cccc(F)c1F` (racemic) [Compound 77], the “Plant response rating, Wheat” value (wheat; [1]) is reported as 50, the “Plant response rating, Wheat” value (wheat; [10]) is reported as 60 and the “Wheat plant response rating” value (wheat; [11]) is reported as 0. The “Plant response rating, Wheat” value (wheat; [3]) was 30, the “Plant response rating, Pigweed” value (pigweed; [1]) was 40 and the “Plant response rating, Pigweed” value (pigweed; [10]) was 50. For the same molecule, the “Pigweed plant response rating” value (pigweed; [11]) was 40, the “Plant response rating, Pigweed” value (pigweed; [3]) was 70 and the “Foxtail, Giant plant response rating” value (foxtail, giant; Preemergence, 31 g ai/ha) was 90. For the same molecule, the “Plant response rating, Foxtail, Giant” value (foxtail, giant; [8]) was 90, the “Plant response rating, Foxtail, Giant” value (foxtail, giant; [9]) was 95 and the “Plant response rating (scale of 0 to 100), Foxtail, Giant” value (foxtail, giant; Preemergence, 250 g ai/ha) was 100. The “Johnsongrass plant response rating” value (johnsongrass; Preemergence, 31 g ai/ha) was 20, the “Plant response rating, Johnsongrass” value (johnsongrass; [8]) was 55 and the “Plant response rating, Johnsongrass” value (johnsongrass; [9]) was 75. For the same molecule, the “Plant response rating (scale of 0 to 100), Johnsongrass” value (johnsongrass; Preemergence, 250 g ai/ha) was 90, the “Plant response rating, Sedge, Umbrella” value (sedge, umbrella; 250 g ai/ha) was 0 and the “Plant response rating, Foxtail, Giant” value (giant foxtail; [1]) was 80. The “Plant response rating, Foxtail, Giant” value (giant foxtail; [10]) was 80, the “Foxtail, Giant plant response rating” value (giant foxtail; [11]) was 90 and the “Plant response rating, Foxtail, Giant” value (giant foxtail; [3]) was 90. For the same molecule, the “Ryegrass, Italian plant response rating” value (ryegrass, Italian; Preemergence, 31 g ai/ha) was 40, the “Plant response rating, Ryegrass, Italian” value (ryegrass, Italian; [8]) was 40 and the “Plant response rating, Ryegrass, Italian” value (ryegrass, Italian; [9]) was 40. The “Plant response rating (scale of 0 to 100), Ryegrass, Italian” value (ryegrass, Italian; Preemergence, 250 g ai/ha) was 45, the “Nutsedge, Yellow plant response rating” value (nutsedge, yellow; Preemergence, 31 g ai/ha) was 0 and the “Plant response rating, Nutsedge, Yellow” value (nutsedge, yellow; [8]) was 0. For the same molecule, the “Plant response rating, Nutsedge, Yellow” value (nutsedge, yellow; [9]) was 0, the “Plant response rating (scale of 0 to 100), Nutsedge, Yellow” value (nutsedge, yellow; Preemergence, 250 g ai/ha) was 0 and the “Blackgrass plant response rating” value (blackgrass; Preemergence, 31 g ai/ha) was 85. For the same molecule, the “Plant response rating, Blackgrass” value (blackgrass; [8]) was 85, the “Plant response rating, Blackgrass” value (blackgrass; [9]) was 85 and the “Plant response rating (scale of 0 to 100), Blackgrass” value (blackgrass; Preemergence, 250 g ai/ha) was 95. The “Crabgrass, Large plant response rating” value (crabgrass, large; Preemergence, 31 g ai/ha) was 95, the “Plant response rating, Crabgrass, Large” value (crabgrass, large; [8]) was 95 and the “Plant response rating, Crabgrass, Large” value (crabgrass, large; [9]) was 98. For the same molecule, the “Plant response rating (scale of 0 to 100), Crabgrass, Large” value (crabgrass, large; Preemergence, 250 g ai/ha) was 98.
